Reference: patent US10301280B2 (Plexxikon Inc., priority 2012, dated 2019)

system: BaF3-FL KIT D816V or BaF3-FL KIT V560G/D816V cell line; assay: Cell-based assays of c-Kit mutant kinase activity (cell growth, ATPlite); conditions: at least one of the c-kit cell assays of Example 26
In short: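 IC50 derived from ATP-content luminescence (ATPlite) after three-day compound exposure at 37° C., 5% CO2. Cells: BaF3 rendered growth-dependent on full-length human KIT D816V or V560G/D816V, 1×10^4 per well, RPMI plus 10% FBS; 8 points, 1:3 steps, maximum 10 μM final, 0.2% DMSO.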

IC50, < 10 µM:
Cc1[nH]nc(C(=O)Nc2cnc3[nH]c(-c4ccnc(C5CCNCC5)c4)cc3c2)c1C [P-2211, 4,5-dimethyl-N-(2-(2-(piperidin-4-yl)pyridin-4-yl)-1H-pyrrolo[2,3-b]pyridin-5-yl)-1H-pyrazole-3-carboxamide]
Cc1[nH]nc(C(=O)Nc2cnc3[nH]c(-c4ccnc(N5CCC(O)CC5)c4)cc3c2)c1C [P-2212, N-(2-(2-(4-hydroxypiperidin-1-yl)pyridin-4-yl)-1H-pyrrolo[2,3-b]pyridin-5-yl)-4,5-dimethyl-1H-pyrazole-3-carboxamide]
Cc1[nH]nc(C(=O)Nc2cnc3[nH]c(-c4ccnc(N5CCCC(O)C5)c4)cc3c2)c1C (centres unmarked) [P-2213, N-(2-(2-(3-hydroxypiperidin-1-yl)pyridin-4-yl)-1H-pyrrolo[2,3-b]pyridin-5-yl)-4,5-dimethyl-1H-pyrazole-3-carboxamide]
CC(=O)N1CCN(c2cc(-c3cc4cc(NC(=O)c5n[nH]c(C)c5C)cnc4[nH]3)ccn2)CC1 [P-2214, N-(2-(2-(4-acetylpiperazin-1-yl)pyridin-4-yl)-1H-pyrrolo[2,3-b]pyridin-5-yl)-4,5-dimethyl-1H-pyrazole-3-carboxamide]
CC(C)=CC(=O)N1CCN(c2cc(-c3cc4cc(NC(=O)c5n[nH]c(C)c5C)cnc4[nH]3)ccn2)CC1 [P-2215, 4,5-dimethyl-N-(2-(2-(4-(3-methylbut-2-enoyl)piperazin-1-yl)pyridin-4-yl)-1H-pyrrolo[2,3-b]pyridin-5-yl)-1H-pyrazole-3-carboxamide]
Cc1[nH]nc(C(=O)Nc2cnc3[nH]c(-c4ccnc(C(=O)N5CCOCC5)c4)cc3c2)c1C [P-2216, 4,5-dimethyl-N-(2-(2-(morpholine-4-carbonyl)pyridin-4-yl)-1H-pyrrolo[2,3-b]pyridin-5-yl)-1H-pyrazole-3-carboxamide]
Cc1[nH]nc(C(=O)Nc2cnc3[nH]c(-c4ccnc(C(=O)N5CCN(C)CC5)c4)cc3c2)c1C [P-2217, 4,5-dimethyl-N-(2-(2-(4-methylpiperazine-1-carbonyl)pyridin-4-yl)-1H-pyrrolo[2,3-b]pyridin-5-yl)-1H-pyrazole-3-carboxamide]
Cc1[nH]nc(C(=O)Nc2cnc3[nH]c(-c4ccnc(C(=O)N5CCCC5)c4)cc3c2)c1C [P-2218, 4,5-dimethyl-N-(2-(2-(pyrrolidine-1-carbonyl)pyridin-4-yl)-1H-pyrrolo[2,3-b]pyridin-5-yl)-1H-pyrazole-3-carboxamide]
Cc1[nH]nc(C(=O)Nc2cnc3[nH]c(-c4ccnc(C(=O)N5CCSCC5)c4)cc3c2)c1C [P-2219, 4,5-dimethyl-N-(2-(2-(thiomorpholine-4-carbonyl)pyridin-4-yl)-1H-pyrrolo[2,3-b]pyridin-5-yl)-1H-pyrazole-3-carboxamide]
COCCNC(=O)c1cc(-c2cc3cc(NC(=O)c4n[nH]c(C)c4C)cnc3[nH]2)ccn1 [P-2220, 4-(5-(4,5-dimethyl-1H-pyrazole-3-carboxamido)-1H-pyrrolo[2,3-b]pyridin-2-yl)-N-(2-methoxyethyl)picolinamide]
Cc1[nH]nc(C(=O)Nc2cnc3[nH]c(-c4ccnc(C(=O)NCCN(C)C)c4)cc3c2)c1C [P-2221, 4-(5-(4,5-dimethyl-1H-pyrazole-3-carboxamido)-1H-pyrrolo[2,3-b]pyridin-2-yl)-N-(2-(dimethylamino)ethyl)picolinamide]
CONC(=O)c1cc(-c2cc3cc(NC(=O)c4n[nH]c(C)c4C)cnc3[nH]2)ccn1 [P-2223, 4-(5-(4,5-dimethyl-1H-pyrazole-3-carboxamido)-1H-pyrrolo[2,3-b]pyridin-2-yl)-N-methoxypicolinamide]
Cc1[nH]nc(C(=O)Nc2cnc3[nH]c(-c4ccnc(C(=O)N(C)C)c4)cc3c2)c1C [P-2224, 4-(5-(4,5-dimethyl-1H-pyrazole-3-carboxamido)-1H-pyrrolo[2,3-b]pyridin-2-yl)-N,N-dimethylpicolinamide]
Cc1[nH]nc(C(=O)Nc2cnc3[nH]c(-c4ccnc(C(=O)NCCN5CCOCC5)c4)cc3c2)c1C [P-2225, 4-(5-(4,5-dimethyl-1H-pyrazole-3-carboxamido)-1H-pyrrolo[2,3-b]pyridin-2-yl)-N-(2-morpholinoethyl)picolinamide]
Cc1[nH]nc(C(=O)Nc2cnc3[nH]c(-c4ccnc(C(=O)NCCN5CCN(C)CC5)c4)cc3c2)c1C [P-2226, 4-(5-(4,5-dimethyl-1H-pyrazole-3-carboxamido)-1H-pyrrolo[2,3-b]pyridin-2-yl)-N-(2-(4-methylpiperazin-1-yl)ethyl)picolinamide]
Cc1[nH]nc(C(=O)Nc2cnc3[nH]c(-c4ccnc(C(=O)NCCC#N)c4)cc3c2)c1C [P-2227, N-(2-cyanoethyl)-4-(5-(4,5-dimethyl-1H-pyrazole-3-carboxamido)-1H-pyrrolo[2,3-b]pyridin-2-yl)picolinamide]
Cc1[nH]nc(C(=O)Nc2cnc3[nH]c(-c4ccnc(C(=O)NCC(C)C)c4)cc3c2)c1C [P-2228, 4-(5-(4,5-dimethyl-1H-pyrazole-3-carboxamido)-1H-pyrrolo[2,3-b]pyridin-2-yl)-N-isobutylpicolinamide]
Cc1[nH]nc(C(=O)Nc2cnc3[nH]c(-c4ccnc(C(=O)NC(C)C)c4)cc3c2)c1C [P-2229, 4-(5-(4,5-dimethyl-1H-pyrazole-3-carboxamido)-1H-pyrrolo[2,3-b]pyridin-2-yl)-N-isopropylpicolinamide]
CCN(CC)C(=O)c1cc(-c2cc3cc(NC(=O)c4n[nH]c(C)c4C)cnc3[nH]2)ccn1 [P-2230, 4-(5-(4,5-dimethyl-1H-pyrazole-3-carboxamido)-1H-pyrrolo[2,3-b]pyridin-2-yl)-N,N-diethylpicolinamide]
Cc1c(C(=O)Nc2cnc3[nH]c(-c4ccccc4)cc3c2)n[nH]c1C(F)(F)F [P-2231, 4-methyl-N-(2-phenyl-1H-pyrrolo[2,3-b]pyridin-5-yl)-5-(trifluoromethyl)-1H-pyrazole-3-carboxamide]
O=C(Nc1cnc2[nH]c(-c3ccccc3)cc2c1)c1n[nH]c(C(F)(F)F)c1Cl [P-2232, 4-chloro-N-(2-phenyl-1H-pyrrolo[2,3-b]pyridin-5-yl)-5-(trifluoromethyl)-1H-pyrazole-3-carboxamide]
O=C(Nc1cnc2[nH]c(-c3ccccc3)cc2c1)c1n[nH]c(Cl)c1C(F)(F)F [P-2233, 5-chloro-N-(2-phenyl-1H-pyrrolo[2,3-b]pyridin-5-yl)-4-(trifluoromethyl)-1H-pyrazole-3-carboxamide]
Cc1c(C(=O)Nc2cnc3[nH]c(-c4ccccc4)cc3c2)n[nH]c1C(F)F [P-2234, 5-(difluoromethyl)-4-methyl-N-(2-phenyl-1H-pyrrolo[2,3-b]pyridin-5-yl)-1H-pyrazole-3-carboxamide]
Cc1[nH]nc(C(=O)Nc2cnc3[nH]c(-c4ccccc4)cc3c2)c1C(F)F [P-2235, 4-(difluoromethyl)-5-methyl-N-(2-phenyl-1H-pyrrolo[2,3-b]pyridin-5-yl)-1H-pyrazole-3-carboxamide]
O=C(Nc1cnc2[nH]c(-c3ccccc3)cc2c1)c1n[nH]c(Cl)c1C(F)F [P-2236, 5-chloro-4-(difluoromethyl)-N-(2-phenyl-1H-pyrrolo[2,3-b]pyridin-5-yl)-1H-pyrazole-3-carboxamide]
O=C(Nc1cnc2[nH]c(-c3ccccc3)cc2c1)c1n[nH]c(C(F)F)c1Cl [P-2237, 4-chloro-5-(difluoromethyl)-N-(2-phenyl-1H-pyrrolo[2,3-b]pyridin-5-yl)-1H-pyrazole-3-carboxamide]
COc1ncccc1-c1cc2cc(NC(=O)c3n[nH]c(C)c3C)cnc2[nH]1 [P-2238, N-(2-(2-methoxypyridin-3-yl)-1H-pyrrolo[2,3-b]pyridin-5-yl)-4,5-dimethyl-1H-pyrazole-3-carboxamide]
CCOc1ncccc1-c1cc2cc(NC(=O)c3n[nH]c(C)c3C)cnc2[nH]1 [P-2239, N-(2-(2-ethoxypyridin-3-yl)-1H-pyrrolo[2,3-b]pyridin-5-yl)-4,5-dimethyl-1H-pyrazole-3-carboxamide]
Cc1[nH]nc(C(=O)Nc2cnc3[nH]c(-c4cccnc4OC(F)F)cc3c2)c1C [P-2240, N-(2-(2-(difluoromethoxy)pyridin-3-yl)-1H-pyrrolo[2,3-b]pyridin-5-yl)-4,5-dimethyl-1H-pyrazole-3-carboxamide]
Cc1[nH]nc(C(=O)Nc2cnc3[nH]c(-c4cccnc4C(F)(F)F)cc3c2)c1C [P-2241, 4,5-dimethyl-N-(2-(2-(trifluoromethyl)pyridin-3-yl)-1H-pyrrolo[2,3-b]pyridin-5-yl)-1H-pyrazole-3-carboxamide]
COc1ccc(-c2cc3cc(NC(=O)c4n[nH]c(C)c4C)cnc3[nH]2)c(OC)n1 [P-2242, N-(2-(2,6-dimethoxypyridin-3-yl)-1H-pyrrolo[2,3-b]pyridin-5-yl)-4,5-dimethyl-1H-pyrazole-3-carboxamide]
Cc1[nH]nc(C(=O)Nc2cnc3[nH]c(-c4cncc(C5CC5)c4)cc3c2)c1C [P-2243, N-(2-(5-cyclopropylpyridin-3-yl)-1H-pyrrolo[2,3-b]pyridin-5-yl)-4,5-dimethyl-1H-pyrazole-3-carboxamide]
Cc1cc(-c2cc3cc(NC(=O)c4n[nH]c(C)c4C)cnc3[nH]2)cnc1C [P-2244, N-(2-(5,6-dimethylpyridin-3-yl)-H-pyrrolo[2,3-b]pyridin-5-yl)-4,5-dimethyl-1H-pyrazole-3-carboxamide]
Cc1[nH]nc(C(=O)Nc2cnc3[nH]c(-c4ccnc(F)c4)cc3c2)c1C [P-2245, N-(2-(2-fluoropyridin-4-yl)-1H-pyrrolo[2,3-b]pyridin-5-yl)-4,5-dimethyl-1H-pyrazole-3-carboxamide]
Cc1cc(-c2cc3cc(NC(=O)c4n[nH]c(C)c4C)cnc3[nH]2)ccn1 [P-2246, 4,5-dimethyl-N-(2-(2-methylpyridin-4-yl)-1H-pyrrolo[2,3-b]pyridin-5-yl)-1H-pyrazole-3-carboxamide]
